Where no end group is shown, it is not given here.

One assay deals with CREB-S133. In words: CREB phosphorylation by western blot in keratinocytes after solar simulated UV. Particulars: 0.1 μM, 1 μM and 5 μM added immediately following ssUV irradiation. In kind it is cell-based. How it is done:
The influence of the polypeptide IK34720 (SEQ ID NO: 3) on CREB phosphorylation was assessed using the following protocol.
Keratinocytes were harvested and cultured as previously described (Gupta et al., J Invest Dermatol, 2007, 127 (3): 707-215). Keratinocytes, (passages 1-5) from 3 independent donors were used in the experiments illustrated in FIG. 3.
Positive control treatment (denoted “D” in FIG. 3) was prepared by solubilizing Calcitriol (1,25-dihydroxyvitamin D3 (1,25 (OH)2D3)-Cayman Chemical, MI, USA) in 100% spectroscopic ethanol (Merck, Darmstadt, Germany) and the final concentration was determined by spectroscopy (NanoDrop 2000, Thermo Fisher Scientific, MA, USA). The polypeptide IK34720 (SEQ ID NO: 3) was solubilised in phosphate buffered saline (PBS) to a concentration of 1 mM at pH 7.2. A vehicle (denoted as “V” in FIG. 3) constituting 0.1% (v/v) spectroscopic ethanol and 0.1% (v/v) PBS was prepared for use as a negative control.
Cultured cells were irradiated by solar simulated UV-irradiation (ssUV) using an Oriel 1000W xenon-arc lamp (Stratford, CT, USA). Irradiation was administered at an energy level of 400 mJ/cm^2 for UVB and 3600 mJ/cm^2 for UVA (total 4000 mJ/cm^2), measured by an OL754 radiometer (Optronics Laboratories Inc., Orlando, FL). This dosage equates to approximately 4 min irradiation of the sun at 12 noon in October in Sydney, Australia. […]

The next assay has as its system TGFβRII. As to the kind of experiment: TGFβRII expression by Western analysis in UV-irradiated dermal fibroblasts. In kind it is cell-based, human. The following applies: 1-10 μM added immediately following UV; 5 h post UV treatment; primary fibroblasts. How it is done: Human skin dermal fibroblasts were cultured from keratome biopsies of healthy adult human skin. Cells were between passages three and six. For UV irradiation, subconfluent cells were washed once with phosphate-buffered saline (PBS) and irradiated with UV. Immediately following irradiation, negative control (vehicle) or 1 μM, 2.5 μM, 5 μM and 10 μM of IK34720 (“IK” in FIG. 3B, SEQ ID NO: 3) were added to the cell cultures.
For Western analysis, nuclear extracts were prepared, membrane fractions were prepared and resolved on 8% SDS-polyacrylamide gel electrophoresis, transferred to polyvinylidene difluoride membrane, and reacted with primary antibodies. Blots were visualized and quantified.

A further assay relates to Smad4. In words: Smad4 expression in UV treated cells (data not shown). In kind it is cell-based.
For the next assay, the system named is primary keratinocytes. In words: CPD detection by IHC in keratinocytes 3 h following UV-irradiation. In kind it is cell-based. How it is done:
An in vitro assay was conducted allowing for densitometry analysis of CPD detection by IHC in keratinocytes 3 h following UV-irradiation in accordance with the following protocol.
Keratinocytes were harvested and cultured as described above at Example 2. Samples were split into two groups, being UV irradiated (UVR) and non-UV irradiated (SHAM). UV-irradiation was performed by solar simulated UV-irradiation for cells, also as described above at Example 2. Irradiation solution was PBS containing 5 mM D-glucose. […]
Harvested keratinocytes were plated on poly-D-lysine coated coverslips in 96 well plates and irradiated (or sham treated) as described above in at Example 2 in PBS containing 5 mM D-glucose. Keratinocytes were fixed 3 h after UV-irradiation. Immunohistochemistry and image analysis were performed as described previously (Gordon-Thomson et al., Photochem Photobiol Sci, 2012, 11 (12): 1837-47; Gupta et al., vide supra, Rybchyn M S et al., J Invest Dermatol, 2018; 138 (5): 1146-1156). Thymine dimers were detected using the anti-thymine dimer antibody (Sigma-Aldrich, Missouri, USA) at 10 μg/mL, and quantified as an index of CPD, as previously described (Douki T and Cadet J, Biochemistry, 2001, 40 (8): 2495-501).
Following irradiation, keratinocytes were treated with either Calcitriol, vehicle control (Veh) or the polypeptide IK34720 (SEQ ID NO: 3; “IK”) IK14800; (RSKAKNPLYRRRRRRRRR), RSKAKNPLY (IK94000) and RRRRRRRRR (IK00900), at concentrations of 5 μM.

The test system of another assay is human skin explants. As to the kind of experiment: CPD formation in UV-irradiated human skin explants. Type of assay: cell-based. How it is done:
Human skin removed at elective surgery was cleaned, dissected and cut into pieces of approx. 5 mm×5 mm. Each piece was placed in a well of a 96 well plate, with individual plates prepared to assess the effects 3 hrs post treatment. All samples were performed in triplicate for each treatment. Skin was subjected to UV-radiation from solar-simulated UV source for 1.5 h (UVR), or non-irradiation (SHAM). Given that human skin is thicker than mouse skin, human skin explants were exposed to a radiation dose three times higher than that used for mouse skin, i.e., 20 J/cm2 versus 7 J/cm^2, respectively, and the output spectrum of the laboratory solar simulator has previously been reported (Rybchyn M S et al, J Invest Dermatol. 2018 May; 138 (5): 1146-1156) and treated immediately after with a vehicle control, Calcitriol (1 nM) or the polypeptide IK34720 (SEQ ID NO: 3) at concentrations of 50 μM, 250 μM or 500 μM.
Samples harvested at 3 hrs were fixed, section, stained and quantified as described in Example 5.

The mark [1] stands for this setting: 5 μM after ssUV, fixed 3 h after UV.

Regarding “RSKAKNPLYRRRRRRRRR (not fully specified (some residues)) [IK34720]”, the “UV-induced phosphorylation of serine at position 133 of CREB” value in the assay on CREB-S133 was “inhibits UV-induced phosphorylation”. For the same sequence, the “TGFβRII expression in UV treated cells” value with TGFβRII is recorded as “restored TGFβRII expression”. Moreover, the “Smad4 expression in UV treated cells” value in the assay on Smad4 is listed as “restored Smad4 expression”. For the same sequence, in the assay on primary keratinocytes (setting [1]), the “CPD levels compared to vehicle-treated UV-irradiated keratinocytes” value is “statistically significant (*p<0.05) reduction in CPD levels” and the “reduction in CPD levels compared to Calcitriol” value is “comparable reduction in CPD levels to keratinocytes treated with Calcitriol”. Further, the “inhibition of CPD formation (average intensity of CPD staining) compared to 1,25D” value in the assay on primary keratinocytes (10 μM, FIG. 8B) is listed as “more effective at inhibiting CPD formation than the positive control 1,25D”. The “CPD levels, dose response” value in the assay with primary keratinocytes (0.5, 1, 2.5 or 5 μM after ssUV, fixed 3 h after UV) was “decreases CPD levels in primary keratinocytes exposed to solar simulated UV-irradiation in a dose dependent manner”. The “percentage of CPD positive cells” value in the assay with human skin explants (500 μM, 3 hrs post irradiation, two individuals) is recorded as “statistically significantly reduced”. In the assay on human skin explants (3 hrs post irradiation/treatment, Calcitriol 1 nM, IK34720 50, 250 or 500 μM), the “cells stained for CPDs” value was “fewer stained cells”.
